Data from ChEMBL document CHEMBL3745631, “Discovery of highly potent and selective Bruton's tyrosine kinase inhibitors: Pyridazinone analogs with improved metabolic stability” (Bioorg Med Chem Lett, 2016).

Assays:
Rattus norvegicus = experiment: Clearance in rat at 1 mg/kg, iv by LC-MS/MS analysis; assay type: ADME, organism-based; details: in vivo
[1] = target: Maternal embryonic leucine zipper kinase (Homo sapiens, UniProt Q14680); experiment: Inhibition of MELK (unknown origin) at 1 uM
[2] = target: Tyrosine-protein kinase ITK/TSK (Homo sapiens) (UniProt Q08881); experiment: Inhibition of ITK (unknown origin) at 1 uM
[3] = target: Mitogen-activated protein kinase kinase kinase 8 (Homo sapiens) (UniProt P41279); experiment: Inhibition of Cot (unknown origin) at 1 uM
[4] = system: Epidermal growth factor receptor (Homo sapiens), P00533 [L858R,T790M]; experiment: Inhibition of EGFR T790M,L858R mutant (unknown origin) at 1 uM; assay type: protein assay
Salmonella typhimurium = experiment: Genotoxicity in Salmonella typhimurium TA98 by Ames test in absence of S9 fraction; assay type: toxicity, organism-based; details: salmonella enterica subsp. enterica serovar typhimurium
[5] = target: Testis-specific serine/threonine-protein kinase 1 (Homo sapiens) (UniProt Q9BXA7); experiment: Inhibition of TSSK1 (unknown origin) at 1 uM
[6] = target: Ephrin type-A receptor 2 (Homo sapiens) (UniProt P29317); experiment: Inhibition of EphA2 (unknown origin) at 1 uM
[7] = target: Platelet-derived growth factor receptor beta (Homo sapiens) (UniProt P09619); experiment: Inhibition of PDGFR_beta (unknown origin) at 1 uM
[8] = target: Mitogen-activated protein kinase kinase kinase 10 (Homo sapiens) (UniProt Q02779); experiment: Inhibition of MLK2 (unknown origin) at 1 uM
[9] = target: Protein-tyrosine kinase 2-beta (Homo sapiens) (UniProt Q14289); experiment: Inhibition of FAK2 (unknown origin) at 1 uM
Sequence of Protein-tyrosine kinase 2-beta (Homo sapiens) (Q14289 whole entry, looked up): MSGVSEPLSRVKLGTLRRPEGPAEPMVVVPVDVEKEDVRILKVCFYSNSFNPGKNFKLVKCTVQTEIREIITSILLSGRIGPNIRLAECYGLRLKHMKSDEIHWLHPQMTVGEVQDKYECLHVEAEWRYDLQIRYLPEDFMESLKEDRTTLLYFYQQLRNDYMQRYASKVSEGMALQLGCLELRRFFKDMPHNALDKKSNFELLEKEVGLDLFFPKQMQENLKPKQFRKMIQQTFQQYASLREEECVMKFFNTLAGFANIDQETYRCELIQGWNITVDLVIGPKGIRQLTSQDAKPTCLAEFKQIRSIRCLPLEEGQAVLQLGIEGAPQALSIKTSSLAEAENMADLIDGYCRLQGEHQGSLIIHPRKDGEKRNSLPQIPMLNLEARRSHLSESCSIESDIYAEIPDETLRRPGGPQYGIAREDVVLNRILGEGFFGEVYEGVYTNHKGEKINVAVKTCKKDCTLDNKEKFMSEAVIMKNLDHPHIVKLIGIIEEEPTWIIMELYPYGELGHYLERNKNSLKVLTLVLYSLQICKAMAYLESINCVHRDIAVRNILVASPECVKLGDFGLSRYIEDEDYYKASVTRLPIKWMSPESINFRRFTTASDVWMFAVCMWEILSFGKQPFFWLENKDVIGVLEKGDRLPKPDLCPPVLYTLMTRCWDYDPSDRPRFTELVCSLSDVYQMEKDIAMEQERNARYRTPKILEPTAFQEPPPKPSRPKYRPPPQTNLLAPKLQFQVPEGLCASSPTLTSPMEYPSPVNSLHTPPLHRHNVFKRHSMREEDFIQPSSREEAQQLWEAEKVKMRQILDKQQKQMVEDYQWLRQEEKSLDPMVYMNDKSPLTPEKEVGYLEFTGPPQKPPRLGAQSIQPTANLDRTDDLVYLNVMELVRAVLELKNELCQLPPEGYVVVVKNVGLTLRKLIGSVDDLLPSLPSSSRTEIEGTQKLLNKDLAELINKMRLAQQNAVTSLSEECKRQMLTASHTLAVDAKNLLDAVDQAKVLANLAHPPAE

Sequence of Epidermal growth factor receptor (Homo sapiens), P00533 [L858R,T790M] (P00533 whole entry T790M/L858R, looked up): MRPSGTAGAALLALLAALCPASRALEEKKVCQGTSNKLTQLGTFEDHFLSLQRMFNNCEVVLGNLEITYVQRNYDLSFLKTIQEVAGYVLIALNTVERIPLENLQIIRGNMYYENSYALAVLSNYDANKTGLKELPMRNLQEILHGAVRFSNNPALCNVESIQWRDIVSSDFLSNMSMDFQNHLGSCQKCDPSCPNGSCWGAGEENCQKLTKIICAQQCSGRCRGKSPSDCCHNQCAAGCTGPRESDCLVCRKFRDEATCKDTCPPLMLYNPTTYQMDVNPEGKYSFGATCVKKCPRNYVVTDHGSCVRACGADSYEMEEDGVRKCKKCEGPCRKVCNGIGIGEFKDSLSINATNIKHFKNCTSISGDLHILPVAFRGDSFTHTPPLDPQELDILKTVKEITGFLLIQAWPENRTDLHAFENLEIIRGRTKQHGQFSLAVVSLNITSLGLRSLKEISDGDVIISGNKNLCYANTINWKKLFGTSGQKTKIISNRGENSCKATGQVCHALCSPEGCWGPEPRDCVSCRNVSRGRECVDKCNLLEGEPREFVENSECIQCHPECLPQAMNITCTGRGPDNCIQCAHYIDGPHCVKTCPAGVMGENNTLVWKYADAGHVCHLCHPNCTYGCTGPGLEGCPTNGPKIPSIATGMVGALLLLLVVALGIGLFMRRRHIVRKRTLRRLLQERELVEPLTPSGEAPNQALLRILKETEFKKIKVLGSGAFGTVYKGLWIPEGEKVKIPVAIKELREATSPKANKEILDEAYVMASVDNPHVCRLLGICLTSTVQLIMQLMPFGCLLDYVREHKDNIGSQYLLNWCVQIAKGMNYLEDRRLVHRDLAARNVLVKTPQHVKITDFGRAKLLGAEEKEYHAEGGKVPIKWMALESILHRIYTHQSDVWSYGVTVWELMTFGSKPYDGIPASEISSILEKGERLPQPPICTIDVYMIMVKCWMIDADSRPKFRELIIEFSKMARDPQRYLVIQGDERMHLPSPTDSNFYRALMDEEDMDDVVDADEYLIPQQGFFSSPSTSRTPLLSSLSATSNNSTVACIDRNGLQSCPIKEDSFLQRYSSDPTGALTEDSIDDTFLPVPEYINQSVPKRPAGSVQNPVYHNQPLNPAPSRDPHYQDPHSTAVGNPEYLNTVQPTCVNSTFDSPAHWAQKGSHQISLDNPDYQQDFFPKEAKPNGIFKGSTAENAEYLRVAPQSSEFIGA
Sequence of Ephrin type-A receptor 2 (Homo sapiens) (P29317 whole entry): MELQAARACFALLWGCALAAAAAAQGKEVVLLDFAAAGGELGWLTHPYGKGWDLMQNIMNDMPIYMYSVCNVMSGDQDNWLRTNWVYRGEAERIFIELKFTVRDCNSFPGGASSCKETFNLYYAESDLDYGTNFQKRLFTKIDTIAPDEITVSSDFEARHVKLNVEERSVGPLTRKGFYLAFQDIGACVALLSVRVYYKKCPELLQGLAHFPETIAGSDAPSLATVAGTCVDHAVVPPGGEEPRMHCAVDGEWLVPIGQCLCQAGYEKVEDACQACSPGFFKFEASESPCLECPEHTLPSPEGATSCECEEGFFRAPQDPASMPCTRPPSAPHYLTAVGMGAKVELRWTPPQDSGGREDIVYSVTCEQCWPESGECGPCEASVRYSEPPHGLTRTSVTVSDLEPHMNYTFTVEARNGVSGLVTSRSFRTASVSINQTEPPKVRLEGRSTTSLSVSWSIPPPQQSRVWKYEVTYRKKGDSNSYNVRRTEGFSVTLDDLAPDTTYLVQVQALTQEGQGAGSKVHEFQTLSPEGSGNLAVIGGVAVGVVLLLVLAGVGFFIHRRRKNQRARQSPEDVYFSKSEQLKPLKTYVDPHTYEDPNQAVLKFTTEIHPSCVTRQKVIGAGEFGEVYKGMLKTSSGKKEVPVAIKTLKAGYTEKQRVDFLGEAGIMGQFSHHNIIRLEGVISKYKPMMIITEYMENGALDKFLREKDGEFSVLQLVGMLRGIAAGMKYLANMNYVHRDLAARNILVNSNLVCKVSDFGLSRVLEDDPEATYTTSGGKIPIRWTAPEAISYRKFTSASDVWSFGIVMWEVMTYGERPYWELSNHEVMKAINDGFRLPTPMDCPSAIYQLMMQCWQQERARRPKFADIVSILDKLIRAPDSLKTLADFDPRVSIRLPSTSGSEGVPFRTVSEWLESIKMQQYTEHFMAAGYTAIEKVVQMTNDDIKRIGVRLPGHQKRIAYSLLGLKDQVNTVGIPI
Sequence of Tyrosine-protein kinase ITK/TSK (Homo sapiens) (Q08881 whole entry): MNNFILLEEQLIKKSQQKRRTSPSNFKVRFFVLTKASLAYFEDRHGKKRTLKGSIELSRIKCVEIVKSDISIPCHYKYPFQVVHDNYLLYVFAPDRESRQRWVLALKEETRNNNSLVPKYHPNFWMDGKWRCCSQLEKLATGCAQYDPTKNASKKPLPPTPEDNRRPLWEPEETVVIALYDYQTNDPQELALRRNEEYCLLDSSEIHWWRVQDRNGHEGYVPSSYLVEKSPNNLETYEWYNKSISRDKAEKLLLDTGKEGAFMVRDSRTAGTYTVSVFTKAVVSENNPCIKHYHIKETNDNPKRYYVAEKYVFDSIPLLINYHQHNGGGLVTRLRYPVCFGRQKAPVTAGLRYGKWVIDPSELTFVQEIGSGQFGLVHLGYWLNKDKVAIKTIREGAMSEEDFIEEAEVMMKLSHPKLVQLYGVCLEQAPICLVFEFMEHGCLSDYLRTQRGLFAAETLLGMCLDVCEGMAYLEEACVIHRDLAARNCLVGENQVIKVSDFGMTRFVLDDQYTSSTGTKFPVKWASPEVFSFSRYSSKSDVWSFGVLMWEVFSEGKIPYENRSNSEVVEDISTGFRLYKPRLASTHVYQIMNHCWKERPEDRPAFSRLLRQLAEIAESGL
Sequence of Maternal embryonic leucine zipper kinase (Q14680 whole entry, looked up): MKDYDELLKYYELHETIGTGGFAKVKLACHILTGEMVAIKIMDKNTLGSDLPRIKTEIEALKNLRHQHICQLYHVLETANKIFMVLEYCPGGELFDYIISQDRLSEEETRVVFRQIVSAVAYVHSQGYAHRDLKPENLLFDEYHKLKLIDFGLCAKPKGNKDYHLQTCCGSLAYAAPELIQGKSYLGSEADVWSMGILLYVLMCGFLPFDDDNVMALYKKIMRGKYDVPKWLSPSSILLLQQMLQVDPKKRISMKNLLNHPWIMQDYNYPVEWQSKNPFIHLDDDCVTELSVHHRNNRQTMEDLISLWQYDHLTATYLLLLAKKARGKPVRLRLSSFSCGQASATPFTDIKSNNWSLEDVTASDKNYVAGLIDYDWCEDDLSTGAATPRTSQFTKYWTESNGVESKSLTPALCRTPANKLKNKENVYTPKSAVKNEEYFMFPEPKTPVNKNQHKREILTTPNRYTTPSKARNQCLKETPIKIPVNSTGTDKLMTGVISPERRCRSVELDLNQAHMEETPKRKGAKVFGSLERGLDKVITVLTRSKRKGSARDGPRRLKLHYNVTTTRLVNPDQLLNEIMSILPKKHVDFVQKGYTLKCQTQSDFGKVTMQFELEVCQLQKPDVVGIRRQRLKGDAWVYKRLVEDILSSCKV
Sequence of Testis-specific serine/threonine-protein kinase 1 (Homo sapiens) (Q9BXA7 whole entry): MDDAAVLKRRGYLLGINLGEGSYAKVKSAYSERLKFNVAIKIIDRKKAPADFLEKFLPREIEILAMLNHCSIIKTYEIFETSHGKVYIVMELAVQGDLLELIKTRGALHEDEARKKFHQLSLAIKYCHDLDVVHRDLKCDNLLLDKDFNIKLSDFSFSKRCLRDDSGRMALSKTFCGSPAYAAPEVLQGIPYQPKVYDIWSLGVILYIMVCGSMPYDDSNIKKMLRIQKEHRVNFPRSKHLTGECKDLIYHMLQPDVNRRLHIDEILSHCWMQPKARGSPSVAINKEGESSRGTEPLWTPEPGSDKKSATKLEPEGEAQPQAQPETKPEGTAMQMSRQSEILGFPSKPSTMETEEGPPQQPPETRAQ

`Cc1c(-c2cc(Nc3cc4n(n3)CCN(C)C4)c(=O)[nH]n2)ccc(F)c1NC(=O)c1cc2ccccc2s1` gave a clearance (Rattus norvegicus) of 5 mL/min/kg, an inhibition [1] of 50% and an inhibition [2] of 38.3%. For the same molecule, the inhibition [3] was 20.1%, the inhibition [4] was 6.1% and the Activity (Salmonella typhimurium) was “Non-toxic”. The inhibition [5] was 0%, the inhibition [6] was 8% and the inhibition [7] was 8%. The inhibition [8] was 7.3% and the inhibition [9] was 4%.
